Test results: patent US20060014728A1, “Hormone replacement therapy” (priority 1996, published 2006)
Where “and” joins values, the source holds several entries; their conditions need not be identical. Equal values may be shown once.

What was measured:
endometrium = assay: Antiproliferative action of antiprogestins on the endometrium in estrogen-replaced, ovariectomized cynomolgus monkeys (Example 2); format: in vivo; settings: biopsy day 30; 1 or 3 mg/kg im daily days 1-30; estradiol capsule sc
[1] = tested on: ovariectomized cynomolgus monkeys; assay: Withdrawal menses after sequential estradiol and progesterone therapy without versus with antiprogestin treatment (menstrual challenges A and B); format: in vivo
From the text: 30 ovariecomized cynomolgus monkeys were studied intensively over 12 weeks. Primates in Group I (N=5 each) received only the vehicles used for hormone delivery in Groups II-VI. Monkeys in Group II received estradiol at physiologic levels throughout (days 1 to 81) via a sc silastic implant, as well as two separate courses of progesterone at physiologic levels via a sc silastic implant (days 28 to 35 and 67 to 74). Groups III-VI received the same sequential regimen of estradiol and progesterone as Group II, but in addition were given an antiprogestin im on alternate days 39 to 67: Group III, mifepristone (RU 486) 2.0 mg/kg; Group IV, mifepristone 20.0 mg/kg; Group V, onapristone (ZK 299) 2.0 mg/kg; and Group VI, onapristone 20.0 mg/kg. The two menstrual challenge tests (A and B) were defined as the six days immediately after withdrawal of progesterone treatment (A on days 36 to 41 and B on days 75 to 80).
The protocol thus provided two periods of estrogen-only HRT treatment, one without antiprogestin followed by another with antiprogestin. Each of these two periods was followed by short-term progesterone treatment which provided a measurement of the effects on bleeding of the antiprogestin during the estrogen HRT treatment.
(§1) The monkeys were randomly distributed into six treatment group preparations (n=5 each). Group I (control) was treated with the vehicle only. One empty silastic implant was placed sc surgically from study day 1 to 81; this controlled for estradiol treatment. Another empty silastic implant was inserted sc from days 28 to 35 and from days 67 to 74 and controlled for progesterone treatment. One ml of the antiprogestin vehicle was administered im on alternate days (39 to 67). Group II received continuous estradiol progesterone at two intervals but no antiprogestins. This experimental design allowed two menstrual challenges (A and B). As described below (Groups III-VI), menstrual challenge A was without antiprogestin exposure; whereas B was with antiprogestin treatment. Group III monkeys received the sequential estradiol and progesterone regimens as in Group II but also RU 486 at 2.0 mg/kg on alternate days for four weeks (days 39 to 67). For Group IV, the same treatment occurred, except that the RU 486 dose was elevated by ten-fold (20.0 mg/kg). Similarly, primates in Groups V and VI were injected with onapristone at 2.0 and 20.0 mg/kg, respectively.
(§2) In all treatment groups, observations for menstrual bleeding were made daily by visual inspection of the vaginal labia. Femoral blood collections (4.0 ml) were taken under ketamine-induced anesthesia (10 mg/kg) on alternate days and endometrial biopsies (by hysterotomy) were obtained on days 53 and 70. Endometrial biopsies were placed in formalin […] and processed for histologic evaluation by a clinical pathologist. Thickness of the endometrial tissues was measured with an ocular micrometer to determine the depth of the endometrium at its point of maximal thickness from the myometrial unction to the epithelial layer at the lumenal surface. Endometrial status was evaluated qualitatively and classified according to the following score: atrophic:O; early proliferative: 1; late proliferative:2; interval:3; early secretory:4; and late secretory:5.

endometrial tissues = assay: Histologic evaluation of primate endometrial tissues on days 53 and 70 (Example 1); format: in vivo, cynomolgus monkeys; settings: for Endometrial Score: score 0-atrophic to 5-secretory; for Thickness (mm): mean ± SD; for thicknesses of endometrial tissues: day 70, Groups III-VI (2.0 and 20.0 mg/kg together)
From the text: Additional data were collected by measurements of estradiol, progesterone and cortisol, as well as each antiprogestin in serum drawn on alternate days (1 to 81). Also, endometrial response was examined histologically in biopsy specimens collected on days 53 and 70, both to measure thickness of endometrial tissue (i.e., anti-proliferative response) and to assess the endometrial tissue qualitatively (atrophic, proliferative, or secretory, etc.).
as §1, §2

[2] = 20.0 mg/kg im on alternate days 39-67, with estradiol + progesterone
[3] = Menstrual Challenge A, withdrawal interval days 36-41, antiprogestins: none (baseline before antiprogestin), groups later given 2 mg/kg
[4] = Menstrual Challenge A, withdrawal interval days 36-41, antiprogestins: none (baseline before antiprogestin), groups later given 20 mg/kg
[5] = Menstrual Challenge B, withdrawal interval days 75-80, estradiol + progesterone + antiprogestin 2 mg/kg im on alternate days 39-67
[6] = Menstrual Challenge B, withdrawal interval days 75-80, estradiol + progesterone + antiprogestin 20 mg/kg im on alternate days 39-67
[7] = Day 53, antiprogestin 2.0 mg/kg
[8] = Day 53, antiprogestin 20.0 mg/kg
[9] = Day 53, estradiol + progesterone + antiprogestin 2.0 mg/kg im alternate days 39-67
[10] = Day 53, estradiol + progesterone + antiprogestin 20.0 mg/kg im alternate days 39-67
[11] = Day 70, antiprogestin 2.0 mg/kg
[12] = Day 70, antiprogestin 20.0 mg/kg
[13] = Day 70, estradiol + progesterone + antiprogestin 2.0 mg/kg im alternate days 39-67
[14] = Day 70, estradiol + progesterone + antiprogestin 20.0 mg/kg im alternate days 39-67

Row | SMILES | classification of endometrial specimens (developmental stage) (endometrium) | bleeding outcome during menstrual challenge B ([1]; 2.0 mg/kg im on alternate days 39-67, with estradiol + progesterone) | bleeding outcome during menstrual challenge B [1, 2] | Incidence of Bleeding, Days [1, 3] | Incidence of Bleeding, Days [1, 4] | Incidence of Bleeding, Days [1, 5] | Incidence of Bleeding, Days [1, 6] | Endometrial Score (endometrial tissues; [7]) | Endometrial Score (endometrial tissues; [8]) | Thickness (mm) (endometrial tissues; [9]) | Thickness (mm) (endometrial tissues; [10]) | Endometrial Score (endometrial tissues; [11]) | Endometrial Score (endometrial tissues; [12]) | Thickness (mm) (endometrial tissues; [13]) | Thickness (mm) (endometrial tissues; [14]) | thicknesses of endometrial tissues (endometrial tissues) | Incidence of Bleeding, Days ([1]; Menstrual Challenge B, withdrawal interval days 75-80, estradiol + progesterone + antiprogestin 2 mg/kg im on alternate days 39-67, listed as ONA) | histological evaluation of endometrium (endometrial tissues; Group V, 2.0 mg/kg)
1 | C[C@]12C[C@@H]3c4ccc(-c5ccc(C#N)cc5)cc4C[C@]45CCC(=O)C=C4CC[C@@H]([C@H]35)[C@@H]1CC[C@@]2(O)/C=C/CO [ZK136798] | interval |  |  |  |  |  |  |  |  |  |  |  |  |  |  |  |  | 
2 | CC#C[C@]1(O)CC[C@H]2[C@@H]3CCC4=CC(=O)CCC4=C3[C@@H](c3ccc(N(C)C)cc3)C[C@@]21C [mifepristone, 11β-(4-dimethylaminophenyl)-17β-hydroxy-1-propinyl-4,9estradien-3-one] | proliferative | complete amenorrhea | complete amenorrhea | 13/30 | 12/30 | 0/30 | 0/30 | 3.6 | 3.8 | 2.5 ± 0.2 mm | 2.2 ± 0.2 mm | 2.4 | 2.8 | 1.8 ± 0.2 mm | 1.3 ± 0.1 mm | approximately 1.5 mm |  | 
3 | CN(C)c1ccc([C@H]2C[C@]3(C)[C@@H](CC[C@]3(O)CCCO)[C@@H]3CCC4=CC(=O)CCC4=C32)cc1 [onapristone, 1β-(4-dimethylaminophenyl)-17-hydroxy-17β-(3-hydroxypropyl)-13-methyl-4,9-gonadien-3-one] | interval |  | complete amenorrhea | 9/30 | 9/30 | three | 0/30 | 3.8 | 3.6 | 2.6 ± 0.2 mm | 2.2 ± 0.1 mm | 4.0 | 3.0 | 1.6 mm and 1.6 ± 0.1 mm | 1.7 ± 0.1 mm | approximately 1.5 mm | 3/30 | well-developed secretory glands
